Results reported in patent publication US20210009557A1, “ACYCLIC CXCR4 INHIBITORS AND USES THEREOF” (X4 Pharmaceuticals, Inc., priority 2017, published 2021).

What was measured:
in vitro = settings: human, Caco-2, pH 7.4
Description: The goal of this assay was to evaluate the intestinal absorption potential of drug candidates using Caco-2 cell lines.
Experimental Procedure • 1. Pre-warm Pre-warm HBSS Buffer in 37° C. water bath • 2. Sonicate Take compounds from −20° C., sonicate for a few minutes (no less than 1 minute) • 3. Solution preparation
For A-to-B Direction: • HBSS buffer with 0.3% DMSO and 5 μM LY: add 150 μL DMSO and 50 μL LY (5 mM) into 50 ml HBSS buffer (pH 7.4). • HBSS buffer with 0.1% DMSO and 5 μM LY: add 50 μL DMSO and 50 μL LY (5 mM) into 50 mL HBSS buffer (pH 7.4).
For B-to-A Direction: • HBSS buffer with 0.3% DMSO: add 150 μL DMSO into 50 ml HBSS buffer (pH 7.4). HBSS buffer with 0.1% DMSO: add 50 μL DMSO into 50 ml HBSS buffer (pH 7.4).
For A-to-B Direction: • Prepare HBSS buffer with 0.4% DMSO: add 200 μL DMSO into 50 ml HBSS buffer (pH 7.4).
For B-to-A Direction: • Prepare HBSS buffer with 0.4% DMSO and 5 μM LY: add 200 μL DMSO and 50 μL LY (5 mM) into 50 ml HBSS buffer (pH 7.4).
• 4. Measure TEER Take cell culture plate out of incubator, wash the cell monolayers with HBSS buffer, and then measure TEER values at Rm temperature. • 5. Centrifuge Centrifuge the compound solution (from step 3) at 4000 rpm for 5 min before loading to donor chambers. • 6. Dosing Add solution based on the volumes listed in the following table (make sure to take extra 100 μL of donor sample for T0 as Backup).
• 7. Apical LYTO samples To determine LY concentration in the apical chamber, take 100 μL sample from apical chambers into an opaque plate for LYTO. • 8. Pre-warm Pre-warm apical and basolateral plates at 37° C. for about 5 min, then begin transport by placing the apical plate onto basolateral plate. • 9. Incubation Keep the plates in incubator at 37° C. for 90 min. • 10.
• Prepare 1× solution: • 3 μL (20×)+57 μL of 0.4% DMSO HBSS+60 μL ACN with IS (Osalmid or Imipramine)—120 μL (1×) • 11. Transport termination Separate the apical plate from the basolateral plate after 90-min incubation. • 12. Measure LY Take 100 μL samples from basolateral plate to an opaque plate as LYT90. • 13. Measure LY concentrations for LYTO and LYT90 by Fluorometer (at excitation of 485 nm/emission of 535 nm). • 14.
Drug permeability: Papp=(VA/(Area×time))×([drug]accepter/(([drug]initial, donor)×Dilution Factor) • Where VA is the volume in the acceptor well, area is the surface area of the membrane and time is the total transport time in seconds.
For Millicell-24 Cell Culture Plates: surface area of the membrane=0.7 cm^2, VA=0.8 mL (A-to-B) or 0.4 mL (B-to-A)

[1] = biological target: T1, CXCR-4 transfected U87 cell line (U87.CXCR4) (Homo sapiens, UniProt P61073); test: Intracellular CXCL-12-induced calcium mobilization assay (FLIPR); assay type: cell-based; settings: U87.CXCR4 cells; CXCL-12 25-50 ng/mL; compounds added 15 minutes before; read-out: IC50 CXCL-12 Ca2+ flux U87.CXCR4+
T1 construct: expressed in transfected cells; host or cells: U87 cell line (U87.CXCR4)
T1 sequence (P61073 whole entry): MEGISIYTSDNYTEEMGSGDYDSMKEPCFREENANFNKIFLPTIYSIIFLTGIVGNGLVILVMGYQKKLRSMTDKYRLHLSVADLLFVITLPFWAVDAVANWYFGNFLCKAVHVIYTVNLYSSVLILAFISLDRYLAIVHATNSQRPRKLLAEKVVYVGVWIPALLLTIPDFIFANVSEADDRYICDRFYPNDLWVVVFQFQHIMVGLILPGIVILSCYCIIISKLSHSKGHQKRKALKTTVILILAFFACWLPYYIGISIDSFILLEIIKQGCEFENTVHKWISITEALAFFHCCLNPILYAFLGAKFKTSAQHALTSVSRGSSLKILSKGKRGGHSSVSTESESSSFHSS
Description: Intracellular calcium mobilization induced by chemokines orchemokine-derived peptides were evaluated using a calcium responsive fluorescent probe and a FLIPR system. The CXCR-4 transfected U87 cell line (U87.CXCR4) cells were seeded in gelatine-coated black-wall 96-well plates at 20,000 cells per well and incubated for 12 hours. Cells were then loaded with the fluorescent calcium probe Fluo-2 acetoxymethyl at 4 μM final concentration in assay buffer (Hanks' balanced salt solution with 20 mM HEPES buffer and 0.2% bovine serum albumin, pH 7.4) for 45 min at 37′C. The intracellular calcium mobilization induced by the CXCL-12 (25-50 ng/mL) was then measured at 37° C. by monitoring the fluorescence as a function of time in all the wells simultaneously using a fluorometric imaging plate reader (FLIPR Tetra, Molecular Devices).

[2] = biological target: T2, Jurkat cells expressing CXCR4 (Homo sapiens, UniProt P61073); test: Chemokine (CXCL12-AF647) binding inhibition assay; settings: CXCL12-AF647 25 ng/mL, read-out: IC50 CXCL-12 binding Jurkat
T2 construct: Jurkat cells expressing CXCR4; endogenous in cells; host or cells: Jurkat cells
T2 sequence (P61073 whole entry): as above
Description: Jurkat cells expressing CXCR4 were washed once with assay buffer (Hanks' balanced salt solution with 20 mM HEPES buffer and 0.2% bovine serum albumin, pH 7.4) and then incubated for 15 min at room temperature with the test compounds diluted in assay buffer at dose-dependent concentrations. Subsequently, CXCL12-AF647 (25 ng/mL) was added to the compound-incubated cells. The cells were incubated for 30 min at room temperature. Thereafter, the cells were washed twice in assay buffer, fixed in 1% paraformaldehyde in PBS, and analyzed on the FL4 channel of a FACSCalibur flow cytometer equipped with a 635-nm red diode laser (Becton Dickinson, San Jose, Calif., USA).
The percentages of inhibition of CXCL12-AF647 binding were calculated according to the formula: [1−((MFI−MFINC)/(MFIPC−MFINC))]×100 where MFI is the mean fluorescence intensity of the cells incubated with CXCL12-AF647 in the presence of the inhibitor, MFINC is the mean fluorescence intensity measured in the negative control (i.e., autofluorescence of unlabeled cells), and MFIPC is the mean fluorescence intensity of the positive control (i.e., cells exposed to CXCL12-AF647 alone).

| Structure (SMILES) | Papp A→B at 90 min, 10 μM (in vitro) [×10⁻⁶ cm/s] | Papp B→A at 90 min, 10 μM (in vitro) [×10⁻⁶ cm/s] | efflux ratio at 90 min, 10 μM (in vitro) | IC50 [1] [nM] | IC50 [2] [nM] |
| --- | --- | --- | --- | --- | --- |
| Cc1cccnc1CN(CCC(N)=O)[C@H]1CCCc2cccnc21 [Compound I-23] | 5 to 10 | > 10 | 10 to 30 | ≥ 1000 | 0.01 to 100 |
| NC(=O)CCN(Cc1nc2ccccc2[nH]1)[C@H]1CCCc2cccnc21 [Compound I-21, (S)-3-(((1H-benzo[d]imidazol-2-yl)methyl)(5,6,7,8-tetrahydroquinolin-8-yl)amino)propanamide] | < 5 | > 10 | > 30 | 100 to 1000 | 0.01 to 100 |
| Clc1cccnc1CN(CCc1cnc[nH]1)Cc1ncccc1Cl [Compound I-28] | > 10 | > 10 | 0.1 to 10 | 100 to 1000 | 0.01 to 100 |
| Cc1cccnc1CN(CCn1ccccc1=O)Cc1ncccc1C [Compound I-58] | > 10 | > 10 | 0.1 to 10 | ≥ 1000 | 100 to 1000 |
| c1cnc2c(c1)CCC[C@@H]2N(CCc1cscn1)Cc1nc2ccccc2[nH]1 [Compound I-20] | > 10 | > 10 | 0.1 to 10 | 0.01 to 100 | 0.01 to 100 |
| c1cnc2c(c1)CCC[C@@H]2N(CCC1CCCCO1)Cc1nc2ccccc2[nH]1 (some centres unmarked) [Compound I-16] | > 10 | > 10 | 0.1 to 10 | ≥ 1000 | 100 to 1000 |
| CC(c1ccccn1)N(CCc1cnc[nH]1)Cc1nc2ccccc2[nH]1 (centres unmarked) [Compound I-7, N-((1H-benzo[d]imidazol-2-yl)methyl)-N-(2-(1H-imidazol-5-yl)ethyl)-1-(pyridin-2-yl)ethan-1-amine] | < 5 | > 10 | > 30 | ≥ 1000 | 0.01 to 100 |
| Cc1cccnc1CN(CCc1cnc[nH]1)Cc1ncccc1C [Compound I-9] | < 5 | > 10 | 10 to 30 | 0.01 to 100 | 0.01 to 100 |
| CC(C)c1cccnc1CN(CCc1cnc[nH]1)Cc1ncccc1Cl [Compound I-35] | > 10 | > 10 | 0.1 to 10 | 100 to 1000 | 0.01 to 100 |
| Cn1c(CN(CCC(N)=O)[C@H]2CCCc3cccnc32)nc2ccccc21 [Compound I-22] | 5 to 10 | > 10 | 10 to 30 | 100 to 1000 | 0.01 to 100 |
| Cc1cccnc1CN(CCc1c[nH]cn1)Cc1nc2c(F)cccc2n1C [Compound I-43, N-((4-fluoro-1-methyl-1H-benzo[d]imidazol-2-yl)methyl)-2-(1H-imidazol-4-yl)-N-((3-methylpyridin-2-yl)methyl)ethan-1-amine] | 5 to 10 | > 10 | 0.1 to 10 | 0.01 to 100 | 0.01 to 100 |
| NC(=O)CCN(Cc1nccs1)[C@H]1CCCc2cccnc21 [Compound I-50] | > 10 | > 10 | 0.1 to 10 | ≥ 1000 | ≥ 1000 |
| CC(C)c1cccnc1CN(CCC(N)=O)[C@H]1CCCc2cccnc21 [Compound I-48] | < 5 | > 10 | 0.1 to 10 | ≥ 1000 | 0.01 to 100 |
| OCCCN(Cc1nc2ccccc2[nH]1)[C@H]1CCCc2cccnc21 [Compound I-19] | > 10 | > 10 | 0.1 to 10 | 100 to 1000 | 0.01 to 100 |
| Cn1c(CN(CCc2c[nH]cn2)[C@H]2CCCc3cccnc32)nc2ccccc21 [Compound I-25] | < 5 | > 10 | 10 to 30 | 0.01 to 100 | 0.01 to 100 |
| Cc1cccnc1CN(CCc1cnc[nH]1)Cc1ncccc1C(C)C [Compound I-34] | 5 to 10 | > 10 | 0.1 to 10 | 100 to 1000 | 0.01 to 100 |
| COc1cccc(CCN(Cc2ncccc2C)Cc2ncccc2C)n1 [Compound I-31, 2-(6-Methoxypyridin-2-yl)-N,N-bis((3-methylpyridin-2-yl)methyl)ethan-1-amine] | > 10 | > 10 | 0.1 to 10 | 0.01 to 100 | 0.01 to 100 |
| COc1cccnc1CCN(Cc1ncccc1C)Cc1ncccc1C [Compound I-56] | 5 to 10 | > 10 | 0.1 to 10 | ≥ 1000 | 0.01 to 100 |
| CC(C)c1cccnc1CN(CCc1cnc[nH]1)Cc1ncccc1C(C)C [Compound I-38] | 5 to 10 | > 10 | 0.1 to 10 | ≥ 1000 | 100 to 1000 |
